Test results from patent US10759817B2, “Gadolinium complex, method for synthesis of the gadolinium complex, and MRI contrast agent including the gadolinium complex” (Kyungpook National University Industry-Academic Cooperation …, priority 2018, dated 2020).

Assay: Relaxibity (r1, r2) measurement by MRI at 1.5 T and 9.4 T
Assay type: physicochemical
Excerpt: In accordance with the present disclosure, the relaxibity (unit mM^−1 s^−1) is obtained using an inversion recovery according to the inversion time (T1). More specifically, signal intensities at varying inversion times T1 are acquired. Then, the signal intensities are subjected to a minimum non-linear fitting (NLF) to obtain the relaxation time (s). Then, the relaxibity (unit mM^−1 s^−1) is obtained using the relaxation time (s) and the concentration (mM) of the contrast agent. The gadolinium complex represented by the Chemical Formula 1 has the relaxibity defined as above which is at least 4 mM^−1 s^−1 not only in the normal magnetic field range of 1.5 T but also in the high magnetic field of 7 T or greater.
The relaxibity for the gadolinium complex GdL^b as obtained above was measured at magnetic field strengths of 1.5 T and 9.4 T respectively as follows.
T1 relaxation time was checked using inversion recovery according to various T1 (inversion times). […] The T2 relaxation time is determined as follows. […] For TEs, mean values of pixels for various spin-echo measurements were calculated using a nonlinear fitting method. Then, the T2 relaxation time was calculated using the spin-echo measurements. The relaxibity (mM^−1s^−1) was calculated as an inverse of a relaxation time (s) for the contrast agent 1 mM. We calculated r1 using the T1 relaxation time and r2 using the T2 relaxation time. […]

Relaxibity r1 (magnetic field 1.5 T): 4.06 mM⁻¹ s⁻¹
Relaxibity r1 (magnetic field 9.4 T): 2.96 mM⁻¹ s⁻¹
Compound: O=C([O-])CN1CCN(CC(=O)[O-])CCN([C@H](CO)[C@H](O)CO)CCN(CC(=O)[O-])CC1.[Gd+3] (racemic) [Gadovist ®, gadobutrol]
